The text below walks through data of patent US12590108B2, “Boracic acid compound” (Phaeno Therapeutics Co., Ltd, priority 2020, dated 2026).

Read-outs that look alike come from different tables or passages of the source.

The nature of this series: Pharmacokinetics of the compound in rats (intravenous and oral). The series is classed as in vivo. Particulars: male, SD, plasma, rat; for Vd: read-out: Vdss. The method, then: The pharmacokinetic characteristics of the compound in rodents after intravenous injection and oral administration were tested by standard protocol. Specifically, the fasting SD male rats in the experiment were given the candidate compounds by intravenous injection and oral administration. Both oral preparation and intravenous preparation were prepared into 10 mg/mL or 30 mg/mL clear solutions with physiological saline and were administered by intravenous bolus or gavage for 5 minutes. Plasma samples were collected and analyzed by LC-MS/MS method, and pharmacokinetic parameters were calculated.

The mark [1] stands for this setting: 100 mg/kg, intravenous bolus 100 mpk.
[2] abbreviates: 300 mg/kg, intravenous bolus 300 mpk.

In general, AUC(0-t) refers to exposure summed from dosing to a finite time, without extrapolation to infinity. Broadly, the half-life is how long it takes for the measured level to halve. Low readings indicate fast loss, high ones slow loss. The term Cmax denotes the maximum level reached in the sampled fluid or tissue. What is called Tmax is the time at which the peak concentration occurs. In general, bioavailability refers to the share of a dose that reaches the circulation, judged against a reference dose that is usually intravenous. Take `CCOc1ccc2c(c1C(=O)O)O[B-](O)(O)CO2` [Compound 15]: under setting [1], the exposure AUC(0-t) turned out to be 549 µg·h/mL, the C0 stood at 580 µg/mL, the clearance is 3.02 mL/min/kg and the half-life is 3.9 h. Also, the Vd under setting [1] is 0.583 L/kg. For the setting “100 mg/kg, oral 100 mpk”, the AUC(0-t) is 278 µg·h/mL, the highest level (Cmax) was 35.2 µg/mL, the Tmax was found to be 2 h and the half-life is 4.99 h. Also, the bioavailability (100 mg/kg, oral 100 mpk, AUC0-inf (100 mpk PO)/AUC0-inf (100 mpk IV)) came out at 52.2%. Under setting [2], the exposure AUC(0-t) came out at 1160 µg·h/mL, the C0 was determined as 1390 µg/mL, the clearance was 4.29 mL/min/kg and the half-life is 4.56 h. Besides, the Vd under setting [2] came to 0.96 L/kg.
